Laboratory results as given in ChEMBL document CHEMBL1130372, “Synthesis and evaluation of putative oxocarbenium intermediate mimic in the KDO8P synthase-catalyzed reaction as a tool for the design of potent inhibitors for lipopolysaccharide biosynthesis” (Bioorg Med Chem Lett, 1997).

Assay: The inhibitory activity was evaluated against homogeneous KDO 8-P synthase from Escherichia coli by varying PEP at saturating concentrations of A5P (0.5 mM)

## O=C(O)CN(CC(O)C(O)C(O)[C@H](O)COP(=O)(O)O)CP(=O)(O)O (stereo partly specified)
  Ki: 3.3 µM
